Source: patent US6911455B2, “Methods for preparing pharmaceutical formulations” (SmithKline Beecham Corporation, priority 1999, dated 2005)
“And” between values parts separate entries of the source, which are not always exact repeats. Equal values may be shown once.

Tests used:
[1] = Surface tension analysis (DuNouy ring method); format: physicochemical
From the text: Aggregation of the histamine releaser in the reference solution and the comparative solution(s) can be measured by measuring the surface tension of each of the reference solution and the comparative solution(s) using the DuNouy ring method, as described in PHYSICAL PHARMACY: PHYSICAL CHEMICAL PRINCIPLES IN THE PHARMACEUTICAL SCIENCES, Editors: Alfred Martin, James Swarbrick, Arthur Cammarata, Third Edition, Lea Et Febiger, Philadelphia, 1983. Surface tension may provide a measure of the critical micelle concentration of the histamine releaser in solution and for this reason is an indicator of aggregation of the histamine releaser in the solution. […]
The surface tension properties of the histamine liberating agent can be evaluated using the DuNouy ring method. […]
The force required to detach the ring in this manner is provided by a torsion wire and is recorded in dynes on a calibrated dial. […]
The tensiometer is calibrated with filtered water and the surface tension of a 50 mg/mL solution of Compound 1 in water is evaluated at room temperature.
The surface tension of each solution is evaluated at room temperature and the results are recorded in a curve of surface tension (y-axis) versus concentration of drug (x-axis).

[2] = Proton NMR relaxation rates (T1, T2) as measure of aggregation; format: physicochemical; details: for T1 / T2: D2O saline (150 mM NaCl)
From the text: There are two types of NMR relaxation, spin-lattice and spin-spin relaxation, referred to as T1 and T2 values, respectively. T1 and T2 are rate constants which measure the relaxation of NMR magnetization back to equilibrium (hereinafter collectively referred to as “NMR relaxation rates”). For small molecules in what is called the extreme narrowing limit, both T1 and T2 increase in inverse proportion to the rotational tumbling rate tc, which, in turn, is directly proportional to the average size of the aggregate. Thus, for small molecules, increases in T1 and/or T2 rates with the addition of excipient to the solution containing the histamine releaser, in the absence of significant changes in the viscosity of the solution, indicates a decrease in aggregation.
Compound 1 and excipient (in the various amounts noted below) are dissolved in 200 μL of D2O with 0.15 M NaCl adjusted to pD 3.0 with NaOD and/or DCl for compound stability reasons. Deuterated saline solution is used in the reference solution because critical compound peaks (or signals) overlap when deuterated water is employed. Samples in a titration series are prepared by serial dilutions. All NMR spectra are recorded at 30° C. on a Varian Unity Plus 500 MHz spectrometer. Spectra are referenced to D2O at 4.65 ppm. All spectra are processed using Varian VNMR® software v6.1a. T1 and T2 relaxation rates are measured using the standard inversion-recovery and Carr-Purcell-Meiboom-Gill (CPMG) experiments respectively, both of which are provided with the Varian software. CPMG experiments are described in M. Bulsing, et al., J. Chem. Soc. Chem. Commun. 1201-3 (1981); R. Freeman et al., IN DYNAMIC NMR SPECTROSCOPY, eds. L. Jackman and F. Cotton (1975) pp. 131-162, Academic Press, London and New York; and D. Rabenstein, et al., J. Magn. Reson. 64:541-546 (1985).
A series of solutions with increasing concentrations of Compound 1 in D2O saline, pD 3.0 are prepared and the NMR relaxation rate constants measured. Both T1S and T2S are measured because the drug, with a molecular weight of 1064.51, could lie outside the extreme motional narrowing limit for NMR, in which case, T1S would be expected to decrease and T2S would be expected to increase with a decrease in aggregation. See, K. Wüthrich, NMR OF PROTEINS AND NUCLEIC ACIDS, (1986) John Wiley Sons, New York.
A series of solutions containing 80 mM Compound 1 with increasing concentrations of d4-citrate in D2O saline, pD 3.0, are prepared, and the NMR relaxation rates are measured. The data obtained is summarized in Table 2 and reported graphically in FIG. 2.
A series of solutions containing 80 mM Compound 1 and varying concentrations of CaCl2 and d4-citrate in D2O saline, pD 3.0, are prepared, and the NMR relaxation rates are measured.

[3] = 80 mM Compound 1, d4-citrate 0.78 mM, pD 3
[4] = 80 mM Compound 1, d4-citrate 1.56 mM, pD 3
[5] = 80 mM Compound 1, d4-citrate 3.13 mM, pD 3
[6] = 80 mM Compound 1, d4-citrate 6.25 mM, pD 3
[7] = 80 mM Compound 1, d4-citrate 12.5 mM, pD 3
[8] = 80 mM Compound 1, d4-citrate 25 mM, pD 3
[9] = 80 mM Compound 1, d4-citrate 50 mM, pD 3
[10] = 80 mM Compound 1, d4-citrate 100 mM, pD 3
[11] = vinyl proton, 20 mM Compound 1, pD 3, 30° C.
[12] = vinyl proton, 40 mM Compound 1, pD 3, 30° C.
[13] = vinyl proton, 80 mM Compound 1, no excipient (reference solution), pD 3, 30° C.
[14] = vinyl proton, 160 mM Compound 1, pD 3, 30° C.

With `COc1cc2c(cc1OC)[C@H](c1cc(OC)c(OC)c(OC)c1)[N@@+](C)(CCCOC(=O)/C=C(\Cl)C(=O)OCCC[N@+]1(C)CCc3cc(OC)c(OC)cc3[C@H]1Cc1cc(OC)c(OC)c(OC)c1)CC2.[Cl-].[Cl-]` [Compound 1, (Z)-2-chloro-1-{3-{(1R,2S)-6,7-dimethoxy-2-methyl-1-[(3,4,5-trimethoxyphenyl)methyl]-1,2,3,4-tetrahydro-2-isoquinolinio}propyl}-4-{3-[(1S,2R)-6,7-dimethoxy-2-methyl-1-(3,4,5-trimethoxyphenyl)-1,2,3,4-tetrahydro-2-isoquinolinio]propyl}-2-butenedioate dichloride] the “surface tension versus concentration” value ([1]; 1-50 mg/mL in water, room temperature, FIG. 1) was “concentration dependent surface tension lowering”, the critical micelle concentration ([1]; in water) was “about 14 mM” and the “slowing of relaxation rates compared to the reference solution” value ([2]; 80 mM Compound 1, 50 mM d4-citrate, D2O saline, pD 3) was “at least 25%”. The “change in the T1 value (slowing of the relaxation rate) compared to the reference solution” value ([2]; 80 mM Compound 1, CaCl2 + d4-citrate, all but the two lowest concentrations of CaCl2 of Table 3) was “greater than 25%”, the “d4-citrate concentration giving maximal effect on decreasing aggregation” value ([2]; 80 mM Compound 1, D2O saline, pD 3) was 50 mM and the T1 ([2]; 80 mM Compound 1, d4-citrate 0.78 mM + CaCl2 100 mM, pD 3) was 2.78 s. It also gave a T1 [2, 3] of 1.53 s, a T2 [2, 3] of 0.57 s and a T1 [2, 4] of 1.65 s. It also gave a T2 [2, 4] of 0.59 s, a T1 [2, 5] of 1.69 s and a T2 [2, 5] of 0.67 s. The T1 ([2]; 80 mM Compound 1, d4-citrate 5 mM + CaCl2 3.13 mM, pD 3) was 1.45 s, the T1 ([2]; 80 mM Compound 1, d4-citrate 5 mM + CaCl2 6.25 mM, pD 3) was 1.47 s and the T1 ([2]; 80 mM Compound 1, d4-citrate 5 mM + CaCl2 12.5 mM, pD 3) was 1.51 s. It also gave a T1 ([2]; 80 mM Compound 1, d4-citrate 5 mM + CaCl2 25 mM, pD 3) of 1.89 s, a T1 ([2]; 80 mM Compound 1, d4-citrate 5 mM + CaCl2 50 mM, pD 3) of 1.94 s and a T1 ([2]; 80 mM Compound 1, d4-citrate 5 mM + CaCl2 100 mM, pD 3) of 2.14 s. For the same compound, the T1 [2, 6] was 1.24 s, the T2 [2, 6] was 0.69 s and the T1 [2, 7] was 2.09 s. The T2 [2, 7] was 1.01 s, the T1 [2, 8] was 2.03 s and the T2 [2, 8] was 0.87 s. It also gave a T1 ([2]; 80 mM Compound 1, d4-citrate 50 mM + CaCl2 100 mM, pD 3) of 2.26 s, a T1 [2, 9] of 2.13 s and a T2 [2, 9] of 1.31 s. It also gave a T1 [2, 10] of 1.96 s, a T2 [2, 10] of 0.85 s and a critical micelle concentration ([2]; in saline (D2O saline, pD 3)) of 40 to 80 mM. It also gave a T1 ([2]; vinyl proton, 10 mM Compound 1, pD 3, 30° C.) of 2.05 s, a T1 [2, 11] of 2.30 s and a T2 [2, 11] of 2.04 s. The T1 [2, 12] was 2.49 s, the T2 [2, 12] was 1.96 s and the T1 [2, 13] was 1.20 s and 1.2 s. The T2 [2, 13] was 0.38 s, the T1 [2, 14] was 0.83 s and the T2 [2, 14] was 0.13 s.
